{
  "source": "patent US5508277A",
  "about": "“Bicyclic pyrimidines” (Adir Et Compagnie, priority 1992, dated 1996)",
  "key": {"[1]": {"test_system": "P388/VCR (murine leukaemia resistant to vincristine)", "assay": "Increase in the anti-tumour activity of vincristine in vivo, compounds administered p.o.", "design": "species or system mice (female B6D2F1)", "settings": "100 mg/kg p.o., days 1, 2, 3 and 4; + vincristine 0.25 mg/kg i.p.", "from_the_text": "(§1) The sensitive parent line P388 (murine leukaemia) and the sub-line resistant to vincristine, P388/VCR, were supplied by NCI (Frederick, USA). The tumour cells (10^6 cells) were inoculated on day 0 into the intraperitoneal cavity of female B6D2F1 mice (Iffa Credo, France) weighing from 18 to 20 g (groups of 8 to 10 animals). In the case of i.p. administration of the compounds to be tested, the animals received on days 1, 5 and 9:\nIn the case of p.o. administration of the compounds to be tested, the animals received on days 1, 2, 3 and 4:\nan administration by the oral route of 100 mg/kg of the compound of the present invention to be tested, then\n30 to 60 minutes later, an administration by the i.p. route of 0.25 mg/kg of vincristine.\nThe anti-tumour activity is expressed as follows: [formula]\nThe activity of the reversing compound is expressed as T/V: [formula]"}, "[2]": {"test_system": "P388/VCR (murine leukaemia resistant to vincristine)", "assay": "Increase in the anti-tumour activity of vincristine in vivo, compounds administered i.p.", "design": "species or system mice (female B6D2F1)", "settings": "for increase in anti-tumour activity of vincristine (in words): administered i.p., resistant tumour", "description": "as §1, with “9: administration by the i.p. route of 25, 50 or 75 mg/kg of the compound of the present invention to be tested, then 30 to 60 minutes later, an administration by the i.p. route of 0.50 mg/kg of vincristine (used as a reference anti-tumour agent). The anti-tumour activity is expressed as follows: [formula] The activity of the reversing compound is expressed as T/V: [formula]” for “9:”"}, "DC-3F/AD cells": {"test_system": "DC-3F/AD cells", "assay": "Cytotoxicity of actinomycin D, reversal of MDR (reversion factor), Microculture Tetrazolium Assay", "format": "cell-based, Chinese hamster", "settings": "compound at 5 μM, with actinomycin D, 4 days", "description": "Two resistant cell lines were used:\nThe cells are distributed on microplates and exposed to the cytotoxic compound (actinomycin D or adriamycin) at 9 concentrations (2 by 2 series dilutions). The compounds tested for their capacity to reverse MDR are added at the same time as the cytotoxic agent. The cells are then incubated for 4 days. […] The results are expressed as a reversion factor (RF): [formula]"}, "[3]": {"settings": "VCR only, 0.50 mg/kg i.p., no compound"}, "[4]": {"settings": "25 mg/kg i.p., days 1, 5 and 9, + vincristine 0.50 mg/kg i.p."}, "[5]": {"settings": "50 mg/kg i.p., days 1, 5 and 9, + vincristine 0.50 mg/kg i.p."}, "[6]": {"settings": "75 mg/kg i.p., days 1, 5 and 9, + vincristine 0.50 mg/kg i.p."}},
  "data": [
    {"smiles": "C=CCNc1nc(N2CCC(NCC(c3ccccc3)c3ccccc3)CC2)nc2c1ncn2CC=C", "note": "[Example 12, 9-allyl-6-allylamino-2-{4-[(2,2-diphenylethyl)amino]piperidino}purine]", "values": [
      {"measurement": "T/C", "setting": "[1]", "result": 192}
    ]},
    {"smiles": "CC[C@]1(O)C[C@H]2CN(CCc3c([nH]c4ccccc34)[C@@](C(=O)OC)(c3cc4c(cc3OC)N(C=O)[C@H]3[C@@](O)(C(=O)OC)[C@H](OC(C)=O)[C@]5(CC)C=CCN6CC[C@]43[C@@H]65)C2)C1", "note": "[VCR, vincristine, reference compound]", "values": [
      {"measurement": "T/C %", "setting": "[2]; [3]", "result": 140, "unit": "%"},
      {"measurement": "T/V", "setting": "[2]; [3]", "result": 1}
    ]},
    {"smiles": "C=CCNc1nc(N2CCC(NCC3c4ccccc4CCc4cc(OC)ccc43)CC2)nc2c1ncn2CC=C", "note": "(stereo not shown) [Example 14, 9-allyl-6-allylamino-2-{4-[(2-methoxy-10,11-dihydro-5H-dibenzo[a,d]cyclohepten-5-yl)methylamino]piperidino}purine]", "values": [
      {"measurement": "T/C", "setting": "[1]", "result": 202}
    ]},
    {"smiles": "C=CCNc1nc(N2CCC(NCC3c4ccccc4CCc4ccccc43)CC2)nc2c1ncn2CC=C", "note": "[Example 1, 9-allyl-6-allylamino-2-{4-[(10,11-dihydro-5H-dibenzo-[a,d]cyclohepten-5-yl)methylamino]piperidino}purine]", "values": [
      {"measurement": "T/C %", "setting": "[2]; [4]", "result": 215, "unit": "%"},
      {"measurement": "T/V", "setting": "[2]; [4]", "result": 1.54},
      {"measurement": "T/C %", "setting": "[2]; [5]", "result": 239, "unit": "%"},
      {"measurement": "T/V", "setting": "[2]; [5]", "result": 1.71},
      {"measurement": "T/C %", "setting": "[2]; [6]", "result": 176, "unit": "%"},
      {"measurement": "T/V", "setting": "[2]; [6]", "result": 1.26},
      {"measurement": "increase in anti-tumour activity of vincristine (in words)", "setting": "[2]", "result": "substantially increase the anti-tumour activity of vincristine against a resistant tumour"},
      {"measurement": "REVERSION FACTOR 5 μM DC-3F/AD", "setting": "DC-3F/AD cells", "result": 5173},
      {"measurement": "T/C", "setting": "[1]", "result": 209}
    ]},
    {"smiles": "COc1ccc(CCN(C)CCCC(C#N)(c2ccc(OC)c(OC)c2)C(C)C)cc1OC", "note": "(stereo not shown) [verapamil, reference compound]", "values": [
      {"measurement": "REVERSION FACTOR 5 μM DC-3F/AD", "setting": "DC-3F/AD cells", "result": 3}
    ]},
    {"smiles": "C=CCNc1nc(N2CCC(NCC(c3ccc(F)cc3)c3ccc(F)cc3)CC2)nc2c1ncn2CC=C", "note": "[Example 3, 9-allyl-6-allylamino-2-{4-[2,2-bis(4-fluorophenyl)-ethylamino]piperidino}purine]", "values": [
      {"measurement": "T/C", "setting": "[1]", "result": 203}
    ]},
    {"smiles": "C=CCNc1nc(N2CCC(NCC3c4ccccc4CCc4ccccc43)CC2)c2ncn(CC=C)c2n1", "note": "[Example 2, 9-allyl-2-allylamino-6-{4-[(10,11-dihydro-5H-dibenzo-[a,d]cyclohepten-5-yl)methylamino]piperidino}purine]", "values": [
      {"measurement": "T/C %", "setting": "[2]; [4]", "result": 192, "unit": "%"},
      {"measurement": "T/V", "setting": "[2]; [4]", "result": 1.37},
      {"measurement": "T/C %", "setting": "[2]; [5]", "result": 224, "unit": "%"},
      {"measurement": "T/V", "setting": "[2]; [5]", "result": 1.60},
      {"measurement": "T/C %", "setting": "[2]; [6]", "result": 235, "unit": "%"},
      {"measurement": "T/V", "setting": "[2]; [6]", "result": 1.68},
      {"measurement": "increase in anti-tumour activity of vincristine (in words)", "setting": "[2]", "result": "substantially increase the anti-tumour activity of vincristine against a resistant tumour"},
      {"measurement": "REVERSION FACTOR 5 μM DC-3F/AD", "setting": "DC-3F/AD cells", "result": 3368},
      {"measurement": "T/C", "setting": "[1]", "result": 172}
    ]},
    {"smiles": "C=CCNc1nc(N2CCC(NCC3c4ccccc4C=Cc4ccccc43)CC2)nc2c1ncn2CC=C", "note": "[Example 6, 9-allyl-6-allylamino-2-{4-[(5H-dibenzo[a,d]cyclohepten-5-yl)methylamino]piperidino}purine]", "values": [
      {"measurement": "T/C", "setting": "[1]", "result": 188}
    ]},
    {"smiles": "C=CCNc1nc(N2CCC(NCC3c4ccccc4CCc4ccccc43)CC2)nc2c1cnn2CC=C", "note": "[Example 9, 1-allyl-4-allylamino-6-{4-[(10,11-dihydro-5H-dibenzo[a,d]cyclohepten-5-yl)methylamino]piperidino}pyrazolo[3,4-d]pyrimidine]", "values": [
      {"measurement": "T/C", "setting": "[1]", "result": 161}
    ]},
    {"smiles": "C=CCNc1nc(N2CCC(NC3c4ccccc4N(C)S(=O)(=O)c4cc(Cl)ccc43)CC2)nc2c1ncn2CC=C", "note": "(single isomer, unassigned) [Example 15, (+)--(R)-- or --(S)-9-allyl-6-allylamino-2-{4-[(3-chloro-6-methyl-5,5-dioxo-6,11-dihydrodibenzo[c,f][1,2]thiazepin-11-yl)amino]piperidino)purine]", "values": [
      {"measurement": "T/C", "setting": "[1]", "result": 157}
    ]},
    {"smiles": "C=CCNc1nc(N2CCC(NCC3c4ccccc4COc4ccccc43)CC2)nc2c1ncn2CC=C", "note": "(stereo not shown) [Example 5, 9-allyl-6-allylamino-2-{4-[(6,11-dihydrodibenzo[b,e]-oxepin-11-yl)methylamino]piperidino}purine]", "values": [
      {"measurement": "T/C", "setting": "[1]", "result": 196}
    ]}
  ]
}
